According to the supplement of paper PMC7806825:
Values belong to the molecule of their own block, whether it stands above or below them.

Test system: McpC ligand-binding domain (Salmonella Typhimurium SL1344)
Assay: protein melting temperature (Tm) in presence of compound (degrees C); higher = more thermal stabilisation (possible ligand binding)
Conditions: compound stock concentration: 10-20 mM, 2 uL in 10 uL reaction

protein melting temperature (Biolog plate: PM05): 44.8
SMILES: NC(=O)c1ccc[n+](C2OC(COP(=O)([O-])OP(=O)(O)OCC3OC(n4cnc5c(N)ncnc54)C(O)C3O)C(O)C2O)c1 (centres undefined) [b-Nicotinamide Adenine Dinucleotide]

protein melting temperature (Biolog plate: PM05): 43.8
SMILES: NCC(=O)CCC(=O)O [d-Amino-levulinic acid]

protein melting temperature (Biolog plate: PM03B): 44.4
SMILES: NCCCCCC(=O)O [e-Amino-N-Caproic acid]

protein melting temperature (Biolog plate: PM02A): 44.4 | protein melting temperature (Biolog plate: PM03B): 44
SMILES: NCCCC(=O)O [g-Amino-N-Butyric acid]

protein melting temperature (Biolog plate: PM02A): 44.7
SMILES: OC[C@H]1O[C@@H]2O[C@H]3[C@H](O)[C@@H](O)[C@@H](O[C@H]4[C@H](O)[C@@H](O)[C@@H](O[C@H]5[C@H](O)[C@@H](O)[C@@H](O[C@H]6[C@H](O)[C@@H](O)[C@@H](O[C@H]7[C@H](O)[C@@H](O)[C@@H](O[C@H]8[C@H](O)[C@@H](O)[C@@H](O[C@H]9[C@H](O)[C@@H](O)[C@@H](O[C@H]1[C@H](O)[C@H]2O)O[C@@H]9CO)O[C@@H]8CO)O[C@@H]7CO)O[C@@H]6CO)O[C@@H]5CO)O[C@@H]4CO)O[C@@H]3CO [g-Cyclodextrin]

protein melting temperature (Biolog plate: PM02A): 43.7
SMILES: OC[C@@H](O)[C@@H](O)CO [i-Erythritol]

protein melting temperature (Biolog plate: PM01): 44.9
SMILES: O=C(O)Cc1cccc(O)c1 [m-Hydroxyphenyl Acetic acid]

protein melting temperature (Biolog plate: PM05): 43.7
SMILES: Nc1ccc(C(=O)O)cc1 [p-Amino-Benzoic acid]

protein melting temperature (Biolog plate: PM04A): 44.5
SMILES: Nc1ccc(S(=O)(=O)O)cc1 [p-Aminobenzene Sulfonic acid]

protein melting temperature (Biolog plate: PM01): 45.3
SMILES: O=C(O)Cc1ccc(O)cc1 [p-Hydroxyphenyl Acetic acid]

The next lines start with the molecule.

SMILES: O=P(O)(O)OC(CO)CO [b-Glycerol Phosphate]
protein melting temperature (Biolog plate: PM04A): 44.3

SMILES: C[C@@H](O)CC(=O)O [b-Hydroxybutyric acid]
protein melting temperature (Biolog plate: PM02A): 44.6

SMILES: CO[C@@H]1O[C@H](CO)[C@H](O)[C@H](O)[C@H]1O [b-Methyl-D-Galactoside]
protein melting temperature (Biolog plate: PM02A): 43.7

SMILES: CO[C@@H]1O[C@H](CO)[C@@H](O)[C@H](O)[C@H]1O [b-Methyl-D-Glucoside]
protein melting temperature (Biolog plate: PM01): 44.7

SMILES: CO[C@@H]1O[C@H](C(=O)O)[C@@H](O)[C@H](O)[C@H]1O [b-Methyl-D-Glucuronic acid]
protein melting temperature (Biolog plate: PM02A): 44.1

SMILES: CO[C@@H]1OC[C@@H](O)[C@H](O)[C@H]1O [b-Methyl-D-Xyloside]
protein melting temperature (Biolog plate: PM02A): 44.2

SMILES: NCCc1ccccc1 [b-Phenylethylamine]
protein melting temperature (Biolog plate: PM03B): 44.6

SMILES: O=C(O)CCCO [g-Hydroxybutyric acid]
protein melting temperature (Biolog plate: PM02A): 44.2
